Patent US20220089550A1, “CRYSTALLINE FORMS OF (S)-2-(7-CYANO-1H-BENZIMIDAZOL-1 YL)-N-{1-[4-(1-CYANO-1-METHYLETHYL)PHENYL]ETHYL}ACETAMIDE” (NEOMED INSTITUTE - INSTITUT NEOMED, priority 2019, published 2022)
pIC50: −log10 of the molar value. ≈ marks a conversion by molar mass, not a printed value. Each block holds one compound with its values, some of them ahead of it.

Assays:
VR1 receptor = VR1 receptor (Homo sapiens, UniProt Q8NER1); conditions: whole cells, intracellular Ca2+ imaging, assay of WO 2008018827; read-out: IC50, antagonist of capsaicin responses; cited from earlier work
[1] = Thermal stability (TGA, variable temperature XRPD); type: physicochemical
Procedure: Crystals of Form C can be converted (3) to crystals of Form A. For example, crystals of Form C are converted to crystals of Form A by heating the crystals of Form C to 155° C. under nitrogen. Furthermore, crystals of Form C can be converted (5) to crystals of Form F. For example, crystals of Form C are converted to crystals of Form F by heating to 136° C. under nitrogen. […] Further heating of this sample generates a mixture of crystals of Form A and Form F.
Compound 1 appears to be chemically stable up to the decomposition temperature of about 250° C. […] The solid-state stability of the crystalline forms is compared by evaluating the relative “thermodynamic stability” of the crystalline forms and the interconversion between crystalline forms upon heating or when slurrying.
TGA was conducted for each crystalline form using a TA Q500/Q5000 TGA from TA Instruments. For each analysis, the TGA cell/sample chamber was purged with ultra-high purity nitrogen gas. The sample crystal was placed into the bottom of an open aluminium pan. […] The weight was plotted versus the measured sample temperature. The data were reported in % of the initial weight. The TGA thermograms for Forms A to F were obtained and can be seen at FIGS. 7 to 12.

[2] = Approximate solubility of crystals of Form A at room temperature; type: physicochemical; conditions: thermodynamic from solid
Procedure: Approximately 2 mg solids were added into a 3-mL glass vial. Solvents as listed in Table 7 were then added stepwise into the vials until the solids were dissolved or a total volume of 1 mL was reached. The results are summarized in Table 7, and were used to guide solvent selection in the polymorph screening.

[3] = Slurry conversion of Form A/Form E and Form A/Form F mixtures in IPA; type: physicochemical; conditions: equal-mass mixtures with Form E or Form F in pre-saturated IPA, room temperature, 48 h
Procedure: Excess amounts of crystals of Form A were added to 2 mL of IPA. The mixture was magnetically stirred at a speed of 750 rpm at room temperature overnight to obtain a saturated solution. The saturated solution was filtered on a PTFE membrane (0.45 μm) to remove the excess solids.
(§1) An equal-mass physical mixture of crystals of Form A and Form E (6 mg of each Form) was added into 0.5 mL of the pre-saturated IPA solution and magnetically stirred at a speed of 750 rpm for 48 h. Solids were isolated from the suspension by centrifugation and an XRPD test was performed (shown at FIG. 19(b)).
as §1, with “Similarly, an” for “An”, “F” for “E”, “19(c)).” for “19(b)).”
In the case of both mixtures, only crystals of Form A were isolated after stirring for 48 h.

[4] = Stability tests for Form A (temperature, relative humidity, compression; XRPD); type: physicochemical
Procedure: Experiments were conducted to evaluate the stability of Form A under various temperature, relative humidity and compression conditions.

VR1 receptor, sequence (Q8NER1 whole entry): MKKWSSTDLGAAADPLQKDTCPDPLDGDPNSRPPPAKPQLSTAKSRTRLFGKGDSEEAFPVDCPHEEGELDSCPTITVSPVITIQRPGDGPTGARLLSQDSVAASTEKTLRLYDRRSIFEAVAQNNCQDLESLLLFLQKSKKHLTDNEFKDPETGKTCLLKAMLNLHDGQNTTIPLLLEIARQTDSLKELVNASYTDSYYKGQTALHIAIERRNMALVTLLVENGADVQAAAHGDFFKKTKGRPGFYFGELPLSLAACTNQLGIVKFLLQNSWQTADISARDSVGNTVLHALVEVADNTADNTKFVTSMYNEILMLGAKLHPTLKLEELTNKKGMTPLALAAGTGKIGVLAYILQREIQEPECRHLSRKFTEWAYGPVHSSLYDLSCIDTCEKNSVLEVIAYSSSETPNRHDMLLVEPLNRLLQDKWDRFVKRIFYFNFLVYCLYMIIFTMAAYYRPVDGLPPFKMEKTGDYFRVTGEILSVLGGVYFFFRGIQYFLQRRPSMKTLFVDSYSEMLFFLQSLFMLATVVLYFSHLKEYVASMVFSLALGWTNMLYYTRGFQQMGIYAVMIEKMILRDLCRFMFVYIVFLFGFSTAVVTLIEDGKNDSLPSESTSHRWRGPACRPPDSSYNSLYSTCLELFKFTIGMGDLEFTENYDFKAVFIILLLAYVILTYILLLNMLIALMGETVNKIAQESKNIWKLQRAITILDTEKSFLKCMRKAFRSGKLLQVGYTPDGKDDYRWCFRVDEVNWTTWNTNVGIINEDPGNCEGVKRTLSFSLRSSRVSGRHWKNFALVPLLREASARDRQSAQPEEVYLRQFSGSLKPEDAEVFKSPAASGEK

Decomposition temperature (chemically stable up to) ([1]; TGA, 10° C./min, nitrogen): about 250 °C
Structure (SMILES): C[C@H](NC(=O)Cn1cnc2cccc(C#N)c21)c1ccc(C(C)(C)C#N)cc1 [Compound 1, (S)-2-(7-Cyano-1H-benzimidazol-1-yl)-N-{1-[4-(1-cyano-1-methylethyl)phenyl]ethyl}acetamide]
pIC50 (VR1 receptor): 7.31 to 7.39

solubility ([2]; 25 °C, organic solvent or mixture, 1,4-Dioxane, room temperature): > 36 mg/mL
solubility ([2]; 25 °C, organic solvent or mixture, 2-MeTHF, room temperature): > 36 mg/mL
solubility ([2]; 25 °C, organic solvent or mixture, ACN, room temperature): > 40 mg/mL
solubility ([2]; 25 °C, organic solvent or mixture, Acetone, room temperature): > 38 mg/mL
solubility ([2]; 25 °C, organic solvent or mixture, Anisole, room temperature): 7.3 to 22 mg/mL (≈ 19.7 to 59.2 mM)
solubility ([2]; 25 °C, organic solvent or mixture, CHCl3, room temperature): > 42 mg/mL
solubility ([2]; 25 °C, organic solvent or mixture, DCM, room temperature): > 40 mg/mL
solubility ([2]; 25 °C, organic solvent or mixture, DMAc, room temperature): > 36 mg/mL
solubility ([2]; 25 °C, organic solvent or mixture, DMSO, room temperature): > 44 mg/mL
solubility ([2]; 25 °C, organic solvent or mixture, EtOAc, room temperature): 22 to 44 mg/mL (≈ 59.2 to 118 mM)
solubility ([2]; 25 °C, organic solvent or mixture, EtOH, room temperature): > 40 mg/mL
solubility ([2]; 25 °C, organic solvent or mixture, IPA, room temperature): 7 to 21 mg/mL (≈ 18.8 to 56.5 mM)
solubility ([2]; 25 °C, organic solvent or mixture, IPAc, room temperature): 6.7 to 20 mg/mL (≈ 18 to 53.8 mM)
solubility ([2]; 25 °C, organic solvent or mixture, MEK, room temperature): > 40 mg/mL
solubility ([2]; 25 °C, organic solvent or mixture, MIBK, room temperature): 18 to 36 mg/mL (≈ 48.5 to 96.9 mM)
solubility ([2]; 25 °C, organic solvent or mixture, MTBE, room temperature): < 1.8 mg/mL
solubility ([2]; 25 °C, organic solvent or mixture, THF, room temperature): > 40 mg/mL
solubility ([2]; 25 °C, organic solvent or mixture, Toluene, room temperature): < 2.1 mg/mL
solubility ([2]; 25 °C, organic solvent or mixture, n-Heptane, room temperature): < 2.2 mg/mL
solubility ([2]; organic solvent or mixture, MeOH, room temperature (25° C.±2° C.)): > 42 mg/mL
solubility ([2]; water, 25 °C, H2O, room temperature): < 2.1 mg/mL
Temperature up to which the crystalline form is stable ([1]; heating, variable temperature XRPD / DSC): about 167.9 °C
Structure (SMILES): C[C@H](NC(=O)Cn1cnc2cccc(C#N)c21)c1ccc(C(C)(C)C#N)cc1 [Form A, (S)-2-(7-Cyano-1H-benzimidazol-1-yl)-N-{1-[4-(1-cyano-1-methylethyl)phenyl]ethyl} acetamide]
Thermodynamic stability by slurry conversion [3]: thermodynamically stable form at room temperature among the three anhydrate Forms
Effect of grinding on XRPD ([4]; aggressive grinding for 2 minutes): minor decrease in the relative intensity of the peaks
Stability of the crystal structure (XRPD) on stressed samples ([4]; various temperature, relative humidity and compression conditions, compared to Form A as synthesized): crystalline structure remained generally similar
